The values below come from ChEMBL document CHEMBL1146631, “Design and synthesis of novel CCR3 antagonists” (Bioorg Med Chem Lett, 2003).

pIC50: −log10 of the molar value.

In data set [1] the target is T1, C-C chemokine receptor type 3 (Homo sapiens, UniProt P51677).
T1 sequence (P51677 whole entry): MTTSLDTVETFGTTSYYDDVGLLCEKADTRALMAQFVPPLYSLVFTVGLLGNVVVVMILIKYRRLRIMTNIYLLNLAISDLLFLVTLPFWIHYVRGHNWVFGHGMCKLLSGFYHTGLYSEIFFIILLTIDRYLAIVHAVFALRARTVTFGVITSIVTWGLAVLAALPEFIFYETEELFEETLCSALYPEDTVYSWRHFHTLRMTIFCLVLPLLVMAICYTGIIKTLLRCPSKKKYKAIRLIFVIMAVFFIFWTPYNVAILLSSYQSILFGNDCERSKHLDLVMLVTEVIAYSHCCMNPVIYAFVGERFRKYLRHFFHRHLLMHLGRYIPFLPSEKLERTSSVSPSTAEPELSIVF
Kind of data set: Binding affinity was determined towards C-C chemokine receptor type 3 using [125I]-labeled eotaxin as radioligand.

A further data set relates to Rattus norvegicus. The data set is described as follows: Area under curve in rat by po administration at 0-24 hr. The format is ADME, organism-based. To be noted: in vivo. More on the design: time < 24 hr, route oral.
Data set [2] deals with T1, C-C chemokine receptor type 3. The data set is described as follows: Compound was tested for its ability to inhibit C-C chemokine receptor type 3 receptor.
The nature of data set [3]: Plasma clearance in rat by iv administration. It counts as ADME, organism-based.
The nature of data set [4]: Volume of distribution in rat by iv administration. The format is ADME, organism-based. To be noted: in vivo.
Data set [5] in a line: Half-life period in rat by iv administration. It counts as ADME, organism-based. To be noted: in vivo.

For `Cc1ccc(C(=O)NC(CC2CCN(Cc3ccc(C)c(C)c3)CC2)C(C)C)cc1` (stereo not drawn), in data set [1], the pIC50 is 5.11.

The molecule `Cc1ccc(C(=O)NC(CC2CCC(Cc3ccc(Cl)c(Cl)c3)CC2)C(C)C)cc1` (stereo not drawn) showed a pIC50 in data set [1] below 3.70.

`C[C@H](O)[C@H](CN1C2CCC1CC(Cc1ccc(Cl)cc1)C2)NC(=O)Nc1cccc(S(C)(=O)=O)c1` (stereo partly drawn) returned an AUC in the data set with Rattus norvegicus of 710 ng·h/mL. Further, the pIC50 is 8.36 in data set [2] and 7.92 in data set [1].

For `Cc1ccc(C(=O)NC(CC2CCN(Cc3ccccc3)CC2)C(C)C)cc1` (stereo not drawn), the pIC50 in data set [1] was below 3.70.

Molecule `COc1cc(NC(=O)N[C@H](C)CN2C3CCC2CC(Cc2ccc(Cl)cc2)C3)cc(OC)c1OC` (stereo partly drawn) registered an AUC with Rattus norvegicus of 280 ng·h/mL. In addition, the pIC50 is 8.33 in data set [2] and 7.96 in data set [1].

In data set [3], `Cc1ccc(C(=O)NC(CN2C3CCC2CC(Cc2ccc(Cl)c(Cl)c2)C3)C(C)C)cc1` (stereo not drawn) had a clearance of 118 mL/min/kg. In data set [4], this molecule had a Vd of 30.1 L/kg. The same molecule showed a half-life in data set [5] of 3.5 h. The molecule also had a pIC50 in data set [1] of 5.74.

Molecule `Cc1ccc(C(=O)NC(CN2CCC(Cc3ccc(Cl)c(Cl)c3)CC2)C(C)C)cc1` (stereo not drawn) gave a pIC50 in data set [1] of 6.30.

With `Cc1ccc(C(=O)NC(CN2CC3CCC2CC3Cc2ccc(Cl)c(Cl)c2)C(C)C)cc1` (stereo not drawn), the pIC50 in data set [1] was 5.28. This pIC50 lies 1.02 log units lower than the previous one.

`Cc1ccc(C(=O)NC(CC2CCN(Cc3ccc(Cl)c(Cl)c3)CC2)C(C)C)cc1` (stereo not drawn): in data set [1], the pIC50 is 5.77.

As to `Cc1ccc(C(=O)NC(CC2CCN(Cc3ccc([N+](=O)[O-])cc3)CC2)C(C)C)cc1` (stereo not drawn), the pIC50 in data set [1] is 5.07.

Molecule `COc1cc(NC(=O)NC(CC2CCN(Cc3ccc(Cl)c(Cl)c3)CC2)C(C)C)cc(OC)c1OC` (stereo not drawn) gave a pIC50 in data set [1] of 6.30.

Take `COc1cc(NC(=O)N[C@@H](CN2C3CCC2CC(Cc2ccc(Cl)cc2)C3)[C@H](C)O)cc(OC)c1OC` (stereo partly drawn): in the data set on Rattus norvegicus, the AUC was 190 ng·h/mL. Besides, the values for the negative logarithm of the IC50 (pIC50) in data set [2] and in data set [1] were 8.62 and 8.09, respectively.

For the molecule `C[C@H](CN1C2CCC1CC(Cc1ccc(Cl)cc1)C2)NC(=O)Nc1cccc(S(C)(=O)=O)c1` (stereo partly drawn), the values for the pIC50 in data set [2] and in data set [1] were 7.92 and 7.19, respectively.

As usually defined, the pIC50 is the IC50 on a negative log10 scale, so that one unit is a factor of ten. Lower therefore signals a large IC50. The AUC is concentration integrated over time. Read a high AUC as high exposure. In general, clearance refers to the volume of plasma or blood freed of the substance per unit of time. Low values mean inefficient removal, high ones efficient removal. By Vd is commonly meant the apparent volume that relates the amount in the body to the concentration in plasma or blood. Read a high Vd as extensive tissue distribution. The term half-life denotes how long it takes for the measured level to halve. The low end stands for rapid decline, the high end for slow decline.
